3 molecules from US20190388513A1, “OIL BASED FORMULATIONS FOR SUBLINGUAL AND BUCCAL DELIVERY” (BIOLINGUS IP LLC, priority 2017, published 2019) can be followed below.

In series [1] the test system is diabetic mice. Nature of the series: Sublingual insulin aspart study: blood glucose in diabetic mice (Example 1). In kind it is in vivo, mice (strain C57/BL6). The note with it: sublingual 100 U/kg insulin aspart in TPMCEu oil, without exenatide, versus SC insulin aspart 1 IU/kg. As for the experimental part:
For the experiments described below, mice of approximately 60 g were used. 5 μL of the resulting oil mixture comprising Insulin Aspart was placed underneath the tongue of anesthetised diabetic mice. […] Five groups of five mice were treated. […] These were compared to 4) 1 IU/kg subcutaneously administered insulin aspart (SC-Insulin aspart) and 5) sublingual oil placebo ([…]).

A short description of series [2]: Sublingual resveratrol: plasma resveratrol levels (Cmax, AUC) in rats, LC-MS/MS (Example 7). The conditions noted are these: sublingual 10 mg in oil formulation (CSSR6d) versus oral 10 mg in sugar syrup, SD rats, up to 24 hours. In kind it is in vivo. As for the experimental part:
Resveratrol was suspended in 50% sugar solution and the mixture spun until homogenous for oral ingestion. Two groups of each three SD rats were treated. The treatment groups were administered as follows: 1) sublingual resveratrol in oil formulation (Group 1: SL-resveratrol 10 mg in oil formulation); 2) oral administered resveratrol in sugar syrup (Group 2: OP resveratrol 10 mg in sugar syrup). Nine blood sampling time points up to 24 hours post dosing per anima […]. Plasma samples bio analysis was performed with LC-MS/MS method.

Series [3] has as its system diabetic mice. Nature of the series: Sublingual insulin glargine study, solid dosage formulation: blood glucose in diabetic mice (Example 2). The class given is in vivo, mice (strain C57/BL6). The conditions noted are these: sublingual insulin glargine 10 or 50 IU/kg absorbed on solid dosage formulation, versus SC insulin glargine 1 IU/kg. As for the experimental part: One solid dosage formulation was placed underneath the tongue of anesthetised diabetic mice. Blood glucose was measured at 0 h, 1 h, 2 h, 4 h, 8 h, 20 h and 24 h.
Four groups of five mice were treated. The treatment groups were administered as follows: 1) sublingual solid dosage formulation placebo (Group 1: SL-CSSR 4; wherein “CSSR-4” means a solid formulation containing vitamin E, PEG 200 and flavouring oils). 2) 1 IU/kg subcutaneously administered insulin glargine (Group 2: SC-Insulin glargine 1 IU/kg); 3) 10 IU/kg sublingually administered insulin glargine (Group 3: SL-Insulin glargine 10 IU/kg); and 4) 50 IU/kg sublingually administered insulin glargine (Group 4: SL-Insulin glargine 50 IU/kg). For animal studies using solid formulations, tablets were dissolved in water to form a gel. The gel was then placed under the tongue of the mice instead of the tablet.

Regarding insulin aspart, the “Blood glucose levels / AUC0-240min, compared with subcutaneous delivery” value in series [1] is reported as “comparable to subcutaneous delivery of insulin aspart”. Consider `Oc1ccc(C=Cc2cc(O)cc(O)c2)cc1` [resveratrol], for which the “Absorbability relative to orally administered resveratrol (Cmax and AUC of blood resveratrol levels)” value in series [2] lay within 20 to 40 times. Consider insulin glargine, for which the “Blood glucose levels 0-24 h, compared with subcutaneous delivery” value in series [3] is recorded as “comparable to subcutaneous delivery of insulin glargine”.
